Results as given in the supplement of paper PMC10307832.

Tests used:
Test in all cases: relative viability (nuclei count vs DMSO), 5 days (fraction); higher = more cells survive
[1] = system: NCI-H3122
Outline: (§1)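 Relative viability was taken as the ratio of nuclei in treated wells to nuclei in vehicle wells. Lung cancer cell lines in 1536-well plates received compounds by pin tool one day after seeding, either one drug alone or a fixed anchor-drug dose plus five library-drug doses (not always all listed) in √10 steps. Nuclei were counted on 4× images after 5 days of treatment, and values are medians of duplicate plates.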

[2] = system: NCI-H358
Outline: as §1

[3] = system: EPLC-272H
Outline: as §1

[4] = system: NCI-H1975
Outline: as §1

[5] = system: NCI-H441
Outline: as §1

[6] = system: NCI-H1755
Outline: as §1

[7] = system: NCI-H2085
Outline: as §1

[8] = system: NCI-H2126
Outline: as §1

[9] = system: HOP-62
Outline: as §1

[10] = system: ABC-1
Outline: as §1

[11] = system: HCC-78
Outline: as §1

[12] = system: NCI-H1993
Outline: as §1

[13] = system: NCI-H2023
Outline: as §1

[14] = system: HCC-15
Outline: as §1

[15] = system: NCI-H1915
Outline: as §1

[16] = system: COR-L 105
Outline: as §1

[17] = system: UMC-11
Outline: as §1

[18] = system: LXF-289
Outline: as §1

[19] = system: NCI-H322M
Outline: as §1

[20] = system: NCI-H1666
Outline: as §1

[21] = system: EMC-BAC-2
Outline: as §1

[22] = system: CAL-12T
Outline: as §1

Clc1ccc(Nc2nnc(Cc3ccncc3)c3ccccc23)cc1 [Vatalanib] + C[C@]1(O)C[C@@H](c2nc(-c3ccc4ccc(-c5ccccc5)nc4c3)c3c(N)nccn32)C1 [Linsitinib] (partner 1 µM)
relative viability ([1]; first compound 0.04 µM): 1.14 | relative viability ([1]; first compound 0.1265 µM): 0.97 | relative viability ([1]; first compound 0.4 µM): 0.961 | relative viability ([1]; first compound 1.265 µM): 1.02 | relative viability ([1]; first compound 4 µM): 1.02 | relative viability ([2]; first compound 0.04 µM): 0.898 | relative viability ([2]; first compound 0.1265 µM): 0.718 | relative viability ([2]; first compound 0.4 µM): 0.917 | relative viability ([2]; first compound 1.265 µM): 0.699 | relative viability ([2]; first compound 4 µM): 0.578 | relative viability ([3]; first compound 0.04 µM): 1.2 | relative viability ([3]; first compound 0.1265 µM): 1.19 | relative viability ([3]; first compound 0.4 µM): 1.27 | relative viability ([3]; first compound 1.265 µM): 1.18 | relative viability ([3]; first compound 4 µM): 1.31 | relative viability ([4]; first compound 0.04 µM): 0.889 | relative viability ([4]; first compound 0.1265 µM): 0.92 | relative viability ([4]; first compound 0.4 µM): 1.1 | relative viability ([4]; first compound 1.265 µM): 0.834 | relative viability ([4]; first compound 4 µM): 0.86 | relative viability ([5]; first compound 0.04 µM): 0.597 | relative viability ([5]; first compound 0.1265 µM): 0.515 | relative viability ([5]; first compound 0.4 µM): 0.583 | relative viability ([5]; first compound 1.265 µM): 0.722 | relative viability ([5]; first compound 4 µM): 0.645 | relative viability ([6]; first compound 0.04 µM): 0.984 | relative viability ([6]; first compound 0.1265 µM): 1.04 | relative viability ([6]; first compound 0.4 µM): 0.995 | relative viability ([6]; first compound 1.265 µM): 0.991 | relative viability ([6]; first compound 4 µM): 0.919 | relative viability ([7]; first compound 0.04 µM): 0.919 | relative viability ([7]; first compound 0.1265 µM): 0.974 | relative viability ([7]; first compound 0.4 µM): 1.05 | relative viability ([7]; first compound 1.265 µM): 0.846 | relative viability ([7]; first compound 4 µM): 0.886 | relative viability ([8]; first compound 0.04 µM): 0.669 | relative viability ([8]; first compound 0.1265 µM): 0.72 | relative viability ([8]; first compound 0.4 µM): 0.669 | relative viability ([8]; first compound 1.265 µM): 0.729 | relative viability ([8]; first compound 4 µM): 0.739 | relative viability ([9]; first compound 0.04 µM): 0.785 | relative viability ([9]; first compound 0.4 µM): 1.02 | relative viability ([9]; first compound 1.265 µM): 0.922 | relative viability ([9]; first compound 4 µM): 0.876 | relative viability ([10]; first compound 0.04 µM): 0.89 | relative viability ([10]; first compound 0.1265 µM): 0.767 | relative viability ([10]; first compound 0.4 µM): 1.05 | relative viability ([10]; first compound 1.265 µM): 0.659 | relative viability ([10]; first compound 4 µM): 0.981 | relative viability ([11]; first compound 0.04 µM): 0.507 | relative viability ([11]; first compound 0.1265 µM): 0.467 | relative viability ([11]; first compound 0.4 µM): 0.527 | relative viability ([11]; first compound 4 µM): 0.448 | relative viability ([12]; first compound 0.04 µM): 0.699 | relative viability ([12]; first compound 0.1265 µM): 0.754 | relative viability ([12]; first compound 0.4 µM): 0.745 | relative viability ([12]; first compound 1.265 µM): 0.727 | relative viability ([12]; first compound 4 µM): 0.734 | relative viability ([13]; first compound 0.04 µM): 0.726 | relative viability ([13]; first compound 0.1265 µM): 0.735 | relative viability ([13]; first compound 0.4 µM): 0.815 | relative viability ([13]; first compound 1.265 µM): 0.571 | relative viability ([13]; first compound 4 µM): 0.705 | relative viability ([14]; first compound 0.04 µM): 0.937 | relative viability ([14]; first compound 0.1265 µM): 0.911 | relative viability ([14]; first compound 0.4 µM): 0.902 | relative viability ([14]; first compound 1.265 µM): 0.87 | relative viability ([14]; first compound 4 µM): 0.873 | relative viability ([15]; first compound 0.04 µM): 1.06 | relative viability ([15]; first compound 0.1265 µM): 1.09 | relative viability ([15]; first compound 0.4 µM): 1.09 | relative viability ([15]; first compound 1.265 µM): 1.04 | relative viability ([15]; first compound 4 µM): 1.09 | relative viability ([16]; first compound 0.04 µM): 0.835 | relative viability ([16]; first compound 0.1265 µM): 0.87 | relative viability ([16]; first compound 0.4 µM): 1.12 | relative viability ([16]; first compound 1.265 µM): 0.772 | relative viability ([16]; first compound 4 µM): 0.941 | relative viability ([17]; first compound 0.04 µM): 1.03 | relative viability ([17]; first compound 0.1265 µM): 0.808 | relative viability ([17]; first compound 0.4 µM): 1.01 | relative viability ([17]; first compound 1.265 µM): 1.04 | relative viability ([17]; first compound 4 µM): 0.987 | relative viability ([18]; first compound 0.04 µM): 1.04 | relative viability ([18]; first compound 0.1265 µM): 0.947 | relative viability ([18]; first compound 0.4 µM): 0.957 | relative viability ([18]; first compound 1.265 µM): 0.888 | relative viability ([18]; first compound 4 µM): 0.919 | relative viability ([19]; first compound 0.04 µM): 0.939 | relative viability ([19]; first compound 0.1265 µM): 0.83 | relative viability ([19]; first compound 0.4 µM): 0.975 | relative viability ([19]; first compound 1.265 µM): 0.959 | relative viability ([19]; first compound 4 µM): 0.919 | relative viability ([20]; first compound 0.04 µM): 0.805 | relative viability ([20]; first compound 0.1265 µM): 0.891 | relative viability ([20]; first compound 0.4 µM): 0.923 | relative viability ([20]; first compound 1.265 µM): 0.779 | relative viability ([20]; first compound 4 µM): 0.708 | relative viability ([21]; first compound 0.04 µM): 0.817 | relative viability ([21]; first compound 0.1265 µM): 0.762 | relative viability ([21]; first compound 0.4 µM): 0.793 | relative viability ([21]; first compound 1.265 µM): 0.808 | relative viability ([21]; first compound 4 µM): 0.802 | relative viability ([22]; first compound 0.04 µM): 0.826 | relative viability ([22]; first compound 0.1265 µM): 0.787 | relative viability ([22]; first compound 0.4 µM): 0.848 | relative viability ([22]; first compound 1.265 µM): 0.755 | relative viability ([22]; first compound 4 µM): 0.822
